Assay results from patent US20240109917A1 (ACTELION PHARMACEUTICALS LTD, priority 2020, published 2024).
Read-outs that look alike come from different tables or passages of the source.

Key:
[1] = molecular target: His6-TEV-PDGFRβ (557-1016) (Homo sapiens (Human), UniProt P09619); test: PDGFRβ HTRF Assay; format: biochemical; details: read-out: PDGFR HTRF IC50
How it was run: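 HTRF KinEASE-TK readout (665/620 nm ratio) of TK-biotin substrate phosphorylation by His-tagged PDGFRβ kinase domain. Enzyme and inhibitor preincubated 30 min, then ATP/substrate added for 3 h at room temperature before 60 min EDTA quench/detection.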

[2] = molecular target: Tb-labeled inactive PDGFRβ (Homo sapiens (Human), UniProt P09619); test: PDGFRβ LanthaScreen Assay; format: binding; details: read-out: PDGFR Lantha IC50
Chain of Tb-labeled inactive PDGFRβ (P09619 33-1106): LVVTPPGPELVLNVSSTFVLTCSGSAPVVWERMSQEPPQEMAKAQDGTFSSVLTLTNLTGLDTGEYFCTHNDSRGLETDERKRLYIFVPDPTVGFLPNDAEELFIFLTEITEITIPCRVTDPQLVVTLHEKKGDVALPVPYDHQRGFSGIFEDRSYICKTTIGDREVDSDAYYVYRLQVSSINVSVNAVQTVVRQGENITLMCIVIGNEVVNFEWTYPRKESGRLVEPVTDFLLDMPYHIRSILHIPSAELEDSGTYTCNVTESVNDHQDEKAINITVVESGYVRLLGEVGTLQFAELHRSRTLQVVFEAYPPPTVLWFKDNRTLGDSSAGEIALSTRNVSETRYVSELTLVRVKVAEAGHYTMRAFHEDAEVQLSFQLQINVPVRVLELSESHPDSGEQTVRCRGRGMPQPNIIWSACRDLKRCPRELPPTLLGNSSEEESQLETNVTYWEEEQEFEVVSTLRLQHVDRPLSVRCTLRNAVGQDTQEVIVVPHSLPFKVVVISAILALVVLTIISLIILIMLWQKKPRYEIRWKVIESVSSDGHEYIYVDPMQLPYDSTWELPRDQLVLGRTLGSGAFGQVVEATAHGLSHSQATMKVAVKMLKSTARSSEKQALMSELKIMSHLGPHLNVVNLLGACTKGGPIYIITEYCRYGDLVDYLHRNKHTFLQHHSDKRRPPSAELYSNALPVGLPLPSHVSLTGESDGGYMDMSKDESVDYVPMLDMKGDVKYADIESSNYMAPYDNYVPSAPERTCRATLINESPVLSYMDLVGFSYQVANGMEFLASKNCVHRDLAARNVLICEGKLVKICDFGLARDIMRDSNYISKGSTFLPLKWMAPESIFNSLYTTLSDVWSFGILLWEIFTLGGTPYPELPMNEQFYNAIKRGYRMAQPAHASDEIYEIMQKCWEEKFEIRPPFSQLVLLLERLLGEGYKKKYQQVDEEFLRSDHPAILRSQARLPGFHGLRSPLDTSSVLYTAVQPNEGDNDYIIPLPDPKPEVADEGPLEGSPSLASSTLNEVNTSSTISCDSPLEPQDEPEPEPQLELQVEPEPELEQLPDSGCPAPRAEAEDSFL

[3] = molecular target: PDGFRβ (Rattus norvegicus (Rat), UniProt Q05030); test: PDGFRβ Cellular Assay (PDGFRb P-Y751 HTRF in A10 cells stimulated with PDGF-BB); format: cell-based
Chain of PDGFRβ (Q05030 32-1097): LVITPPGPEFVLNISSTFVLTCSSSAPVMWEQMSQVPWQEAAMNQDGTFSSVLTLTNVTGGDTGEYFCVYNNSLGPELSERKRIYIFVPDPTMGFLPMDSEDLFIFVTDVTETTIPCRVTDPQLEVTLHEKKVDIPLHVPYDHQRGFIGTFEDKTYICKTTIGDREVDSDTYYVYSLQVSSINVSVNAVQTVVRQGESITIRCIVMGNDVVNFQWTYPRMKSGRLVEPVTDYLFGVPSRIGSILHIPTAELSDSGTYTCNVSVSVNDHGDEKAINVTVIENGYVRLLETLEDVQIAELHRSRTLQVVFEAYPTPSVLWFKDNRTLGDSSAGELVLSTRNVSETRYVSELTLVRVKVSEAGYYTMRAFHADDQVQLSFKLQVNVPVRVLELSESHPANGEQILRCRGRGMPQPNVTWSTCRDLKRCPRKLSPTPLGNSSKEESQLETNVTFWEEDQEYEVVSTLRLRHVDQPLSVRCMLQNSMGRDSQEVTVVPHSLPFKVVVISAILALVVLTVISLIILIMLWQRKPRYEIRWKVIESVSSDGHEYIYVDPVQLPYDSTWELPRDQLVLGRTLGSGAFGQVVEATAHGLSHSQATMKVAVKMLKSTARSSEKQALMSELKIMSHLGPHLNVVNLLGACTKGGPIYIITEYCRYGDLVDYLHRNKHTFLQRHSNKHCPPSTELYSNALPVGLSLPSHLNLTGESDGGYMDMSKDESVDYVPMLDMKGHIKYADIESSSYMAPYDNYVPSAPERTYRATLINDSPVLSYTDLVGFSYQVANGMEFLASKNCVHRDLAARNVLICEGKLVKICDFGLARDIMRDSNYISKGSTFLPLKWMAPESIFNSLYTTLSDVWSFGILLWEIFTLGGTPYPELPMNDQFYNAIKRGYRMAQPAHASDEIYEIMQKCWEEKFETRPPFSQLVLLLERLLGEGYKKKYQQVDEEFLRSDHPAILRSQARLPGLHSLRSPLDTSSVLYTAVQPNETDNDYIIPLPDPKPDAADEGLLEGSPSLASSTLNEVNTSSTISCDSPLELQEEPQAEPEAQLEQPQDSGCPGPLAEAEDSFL
How it was run: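 Phospho-Y751 PDGFRβ was measured by HTRF in lysates of A10 rat cells. Cells received compound for 3 hours before PDGF-BB stimulation (100 ng/mL working stock).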

Chain of His6-TEV-PDGFRβ (557-1016) (P09619 557-1016): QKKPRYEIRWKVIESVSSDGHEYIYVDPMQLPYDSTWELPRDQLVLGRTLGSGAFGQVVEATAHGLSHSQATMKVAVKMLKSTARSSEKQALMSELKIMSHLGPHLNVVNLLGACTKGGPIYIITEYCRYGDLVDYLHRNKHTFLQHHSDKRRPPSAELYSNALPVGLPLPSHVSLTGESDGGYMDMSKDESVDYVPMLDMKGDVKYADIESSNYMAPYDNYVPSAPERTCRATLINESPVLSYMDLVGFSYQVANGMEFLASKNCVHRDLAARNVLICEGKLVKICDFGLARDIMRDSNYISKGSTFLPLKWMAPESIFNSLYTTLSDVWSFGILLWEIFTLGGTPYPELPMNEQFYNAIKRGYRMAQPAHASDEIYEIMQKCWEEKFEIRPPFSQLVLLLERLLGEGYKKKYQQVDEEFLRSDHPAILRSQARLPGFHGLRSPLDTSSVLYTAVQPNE

Row | SMILES | IC50 [1] | IC50 [2] | IC50 ([3]; read-out: PDGFR Cellular IC50) | IC50 ([3]; PDGFR Cellular IC50)
1 | Cc1ncc(NC(=O)CN2CCC[C@@H]2C)cc1NC(=O)c1cnn2cc(-c3cnn4c3CCC4)sc12 [Example 416, (S)-2-(5,6-dihydro-4H-pyrrolo[1,2-b]pyrazol-3-yl)-N-(2-methyl-5-(2-(2-methylpyrrolidin-1-yl)acetamido)pyridin-3-yl)pyrazolo[5,1-b]thiazole-7-carboxamide] | 0.2 nM | 1.6 nM | 2.3 nM | 
2 | Cc1ncc(NC(=O)CN2CC(C)(C)C2)cc1NC(=O)c1cnn2cc(-c3cnn(C)c3C)sc12 [Example 434, 2-(1,5-Dimethyl-1H-pyrazol-4-yl)-N-(5-(2-(3,3-dimethylazetidin-1-yl)acetamido)-2-methylpyridin-3-yl)pyrazolo[5,1-b]thiazole-7-carboxamide] | 0.2 nM | 2.2 nM | 2.4 nM | 
3 | Cc1ncc(C(=O)NCCN2CCCC23CCC3)cc1NC(=O)c1cnn2cc(-c3cnn4c3CCC4)sc12 [Example 461, N-(5-((2-(5-azaspiro[3.4]octan-5-yl)ethyl)carbamoyl)-2-methylpyridin-3-yl)-2-(5,6-dihydro-4H-pyrrolo[1,2-b]pyrazol-3-yl)pyrazolo[5,1-b]thiazole-7-carboxamide] | 0.2 nM | 0.8 nM | 2.1 nM | 
4 | COCCn1cc(-c2cn3ncc(C(=O)Nc4cc(NC(=O)CCN5CCCC5(C)C)cnc4C)c3s2)cn1 [Example 41, N-(5-(3-(2,2-dimethylpyrrolidin-1-yl)propanamido)-2-methylpyridin-3-yl)-2-(1-(2-methoxyethyl)-1H-pyrazol-4-yl)pyrazolo[5,1-b]thiazole-7-carboxamide] | 0.43 nM | 4.7 nM | 10 nM | 
5 | Cc1ncc(NC(=O)CN2CCCC2(C)C)cc1NC(=O)c1cnn2cc(-c3cnn(CCO)c3)sc12 [Example 447, N-(5-(2-(2,2-dimethylpyrrolidin-1-yl)acetamido)-2-methylpyridin-3-yl)-2-(1-(2-hydroxyethyl)-1H-pyrazol-4-yl)pyrazolo[5,1-b]thiazole-7-carboxamide] | 0.5 nM | 3.7 nM | 12.4 nM | 
6 | Cc1ncc(NC(=O)CNC2CCC2)cc1NC(=O)c1cnn2cc(-c3cnn4c3CCC4)sc12 [Example 471, N-(5-(2-(cyclobutylamino)acetamido)-2-methylpyridin-3-yl)-2-(5,6-dihydro-4H-pyrrolo[1,2-b]pyrazol-3-yl)pyrazolo[5,1-b]thiazole-7-carboxamide] | 0.1 nM | 1 nM | 3.4 nM | 
7 | Cc1ncc(NC(=O)CC2CNC2)cc1NC(=O)c1cnn2cc(-c3cnn4c3CCC4)sc12 [Example 426, N-(5-(2-(azetidin-3-yl)acetamido)-2-methylpyridin-3-yl)-2-(5,6-dihydro-4H-pyrrolo[1,2-b]pyrazol-3-yl)pyrazolo[5,1-b]thiazole-7-carboxamide] | 11.5 nM | 482 nM | > 2000 nM | 
8 | CCCNCC(=O)Nc1cnc(C)c(NC(=O)c2cnn3cc(-c4cnn5c4CCC5)sc23)c1 [Example 456, 2-(5,6-dihydro-4H-pyrrolo[1,2-b]pyrazol-3-yl)-N-(2-methyl-5-(2-(propylamino)acetamido)pyridin-3-yl)pyrazolo[5,1-b]thiazole-7-carboxamide] | 0.4 nM | 4.7 nM | 11 nM | 
9 | Cc1ncc(NC(=O)CC2CN(C)C2)cc1NC(=O)c1cnn2cc(-c3cnn4c3CCC4)sc12 [Example 468, 2-(5,6-dihydro-4H-pyrrolo[1,2-b]pyrazol-3-yl)-N-(2-methyl-5-(2-(1-methylazetidin-3-yl)acetamido)pyridin-3-yl)pyrazolo[5,1-b]thiazole-7-carboxamide] | 2.1 nM | 149 nM | 2000 nM | 
10 | Cc1ncc(NC(=O)CN2CCC[C@H]2C)cc1NC(=O)c1cnn2cc(-c3nn(C)nc3C)sc12 [Example 443, (R)-2-(2,5-dimethyl-2H-1,2,3-triazol-4-yl)-N-(2-methyl-5-(2-(2-methylpyrrolidin-1-yl)acetamido)pyridin-3-yl)pyrazolo[5,1-b]thiazole-7-carboxamide] | 0.4 nM | 4.4 nM | 3.9 nM | 
11 | COC1CN(CC(=O)Nc2cnc(C)c(NC(=O)c3cnn4cc(-c5cn(C)nc5C)sc34)c2)C1 [Example 441, 2-(1,3-Dimethyl-1H-pyrazol-4-yl)-N-(5-(2-(3-methoxyazetidin-1-yl)acetamido)-2-methylpyridin-3-yl)pyrazolo[5,1-b]thiazole-7-carboxamide] | 0.7 nM | 19.7 nM | 30.5 nM | 
12 | Cc1ncc(C(=O)NCCN2CC(C)(C)C2)cc1NC(=O)c1cnn2cc(-c3cnn4c3OCCC4)sc12 [Example 479, 2-(6,7-dihydro-5H-pyrazolo[5,1-b][1,3]oxazin-3-yl)-N-(5-((2-(3,3-dimethylazetidin-1-yl)ethyl)carbamoyl)-2-methylpyridin-3-yl)pyrazolo[5,1-b]thiazole-7-carboxamide] | 0.3 nM | 2 nM | 97.1 nM | 
13 | Cc1ncc(NC(=O)CN2CCCC2(C)C)cc1NC(=O)c1cnn2cc(-c3cccn(CCF)c3=O)sc12 [Example 449, N-(5-(2-(2,2-dimethylpyrrolidin-1-yl)acetamido)-2-methylpyridin-3-yl)-2-(1-(2-fluoroethyl)-2-oxo-1,2-dihydropyridin-3-yl)pyrazolo[5,1-b]thiazole-7-carboxamide] | 0.7 nM | 9.1 nM | 10.6 nM | 
14 | Cc1ncc(NC(=O)CN2CCCC23CCC3)cc1NC(=O)c1cnn2cc(-c3cnn4c3COCC4)sc12 [Example 417, N-(5-(2-(5-azaspiro[3.4]octan-5-yl)acetamido)-2-methylpyridin-3-yl)-2-(6,7-dihydro-4H-pyrazolo[5,1-c][1,4]oxazin-3-yl)pyrazolo[5,1-b]thiazole-7-carboxamide] | 0.4 nM | 2.8 nM |  | 2.6 nM
15 | Cc1ncc(NC(=O)CN2CC(C)(C)C2)cc1NC(=O)c1cnn2cc(-c3cnn4c3CCC4)sc12 [Example 409, 2-(5,6-dihydro-4H-pyrrolo[1,2-b]pyrazol-3-yl)-N-(5-(2-(3,3-dimethylazetidin-1-yl)acetamido)-2-methylpyridin-3-yl)pyrazolo[5,1-b]thiazole-7-carboxamide] | 0.2 nM | 1.3 nM | 1.6 nM | 
16 | Cc1ncc(NC(=O)CN2CCC(C)C2)cc1NC(=O)c1cnn2cc(-c3cn(C)nc3C)sc12 (stereo not drawn) [Example 446, 2-(1,3-Dimethyl-1H-pyrazol-4-yl)-N-(2-methyl-5-(2-(3-methylpyrrolidin-1-yl)acetamido)pyridin-3-yl)pyrazolo[5,1-b]thiazole-7-carboxamide] | 0.3 nM | 3.5 nM | 3 nM | 
17 | Cc1ncc(C(=O)NCCN2CCCC23CCC3)cc1NC(=O)c1cnn2cc(-c3cnn4c3COCC4)sc12 [Example 472, N-(5-((2-(5-azaspiro[3.4]octan-5-yl)ethyl)carbamoyl)-2-methylpyridin-3-yl)-2-(6,7-dihydro-4H-pyrazolo[5,1-c][1,4]oxazin-3-yl)pyrazolo[5,1-b]thiazole-7-carboxamide] | 0.4 nM | 2.8 nM | 5.4 nM | 
18 | COCCn1cc(-c2cn3ncc(C(=O)Nc4cc(NC(=O)C5(CN6CCC[C@@H]6C)CC5)cnc4C)c3s2)cn1 [Example 452, (S)-2-(1-(2-methoxyethyl)-1H-pyrazol-4-yl)-N-(2-methyl-5-(1-((2-methylpyrrolidin-1-yl)methyl)cyclopropanecarboxamido)pyridin-3-yl)pyrazolo[5,1-b]thiazole-7-carboxamide] | 12.1 nM | 376 nM | 91.6 nM | 
19 | Cc1ncc(NC(=O)CN2CC(C)(C)C2)cc1NC(=O)c1cnn2cc(-c3cnc4n3CCOC4)sc12 [Example 415, 2-(5,6-dihydro-8H-imidazo[2,1-c][1,4]oxazin-3-yl)-N-(5-(2-(3,3-dimethylazetidin-1-yl)acetamido)-2-methylpyridin-3-yl)pyrazolo[5,1-b]thiazole-7-carboxamide] | 0.5 nM | 6.6 nM | 41.5 nM | 
20 | Cc1ncc(NC(=O)CN2CC3(CCCCO3)C2)cc1NC(=O)c1cnn2cc(-c3cnn4c3CCC4)sc12 [Example 424, N-(5-(2-(5-oxa-2-azaspiro[3.5]nonan-2-yl)acetamido)-2-methylpyridin-3-yl)-2-(5,6-dihydro-4H-pyrrolo[1,2-b]pyrazol-3-yl)pyrazolo[5,1-b]thiazole-7-carboxamide] | 0.3 nM | 2.2 nM | 6.8 nM | 
21 | CCCNCC(=O)Nc1cnc(C)c(NC(=O)c2cnn3cc(-c4cnn5c4OCCC5)sc23)c1 [Example 455, 2-(6,7-dihydro-5H-pyrazolo[5,1-b][1,3]oxazin-3-yl)-N-(2-methyl-5-(2-(propylamino)acetamido)pyridin-3-yl)pyrazolo[5,1-b]thiazole-7-carboxamide] | 0.6 nM | 3.3 nM |  | 15 nM
22 | Cc1ncc(NC(=O)CN2CCC[C@@H]2C)cc1NC(=O)c1cnn2cc(-c3cnn4c3COCC4)sc12 [Example 473, (S)-2-(6,7-dihydro-4H-pyrazolo[5,1-c][1,4]oxazin-3-yl)-N-(2-methyl-5-(2-(2-methylpyrrolidin-1-yl)acetamido)pyridin-3-yl)pyrazolo[5,1-b]thiazole-7-carboxamide] | 0.4 nM | 4.8 nM | 5.3 nM | 
